Assay results as given in ChEMBL document CHEMBL1127553, “Derivatives of a novel cyclopeptolide. 2. Synthesis, activity against multidrug resistance in CHO and KB cells in vitro, and structure-activity relationships” (1994).

Columns and labels:
Format in all cases: functional, Cricetulus griseus
CHO [1] = assay: The sensitizing capacity for colchicine treatment of multi drug resistance (MDR) CHO cell at concentration 1.0(mg/L).
CHO [2] = assay: The sensitizing capacity for colchicine treatment of multi drug resistance(MDR) in CHO cell at concentration 0.1(mg/L).
CHO [3] = assay: Sensitization of colchicine treated parental (PAR)CHO cells, measured at concentration 0.1(mg/L)
CHO [4] = assay: The sensitizing capacity for colchicine treatment of parental (PAR)CHO cells at concentration 1.0 (mg/L)

Compound	Activity (CHO [1])	Activity (CHO [2])	Activity (CHO [3])	Activity (CHO [4])
CC[C@H](C)[C@H]1C(=O)NCC(=O)N(C)[C@@H](C(C)C)C(=O)N[C@@H](Cc2ccc(O)cc2)C(=O)O[C@H](C)C(=O)N2CCCC[C@H]2C(=O)N(C)[C@@H](C(C)C)C(=O)N[C@@H](C(C)C)C(=O)N(C)[C@@H](CC(=O)OC(C)(C)C)C(=O)N(C)[C@@H]([C@@H](C)CC)C(=O)N1C	172	2.5	6.5	14
CC[C@H](C)[C@H]1C(=O)NCC(=O)N(C)[C@@H](C(C)C)C(=O)N[C@@H](Cc2ccc(OC)cc2)C(=O)O[C@H](C)C(=O)N2CCCC[C@H]2C(=O)N(C)[C@@H](C(C)C)C(=O)N[C@@H](C(C)C)C(=O)N(C)[C@@H](CC(=O)NC[Si](C)(C)C)C(=O)N(C)[C@@H]([C@@H](C)CC)C(=O)N1C	163	3.3	6.7	11
CC[C@H](C)[C@H]1C(=O)NCC(=O)N(C)[C@@H](C(C)C)C(=O)N[C@@H](Cc2ccc(OC)cc2)C(=O)O[C@H](C)C(=O)N2CCCC[C@H]2C(=O)N(C)[C@@H](C(C)C)C(=O)N[C@@H](C(C)C)C(=O)N(C)[C@@H](CC(=O)OC2C3CC4CC(C3)CC2C4)C(=O)N(C)[C@@H]([C@@H](C)CC)C(=O)N1C (stereo partly specified)	29	1.1	3.4	6.1
CC[C@@H](C)[C@H]1C(=O)N(C)CC(=O)N(C)[C@@H](C(C)C)C(=O)N(C)[C@@H](Cc2ccc(OC)cc2)C(=O)O[C@H](C)C(=O)N2CCCC[C@H]2C(=O)N(C)[C@@H](C(C)C)C(=O)N(C)[C@@H](C(C)C)C(=O)N(C)[C@H](CC(=O)OC)C(=O)N(C)[C@@H]([C@@H](C)CC)C(=O)N1C	5.5	1.1	1.3	4.6
CC[C@@H](C)[C@H]1C(=O)NCC(=O)N(C)[C@@H](C(C)C)C(=O)N[C@@H](Cc2ccc(OC)cc2)C(=O)O[C@@H](C)C(=O)N2CCCC[C@H]2C(=O)N(C)[C@@H](C(C)C)C(=O)N[C@@H](C(C)C)C(=O)N(C)[C@H](CC(=O)NC2CCCCC2)C(=O)N(C)[C@@H]([C@@H](C)CC)C(=O)N1C	286	72		
CC[C@H](C)[C@H]1C(=O)NCC(=O)N(C)[C@@H](C(C)C)C(=O)N[C@@H](Cc2ccc(OC)cc2)C(=O)O[C@H](C)C(=O)N2CCCC[C@H]2C(=O)N(C)[C@@H](C(C)C)C(=O)N[C@@H](C(C)C)C(=O)N(C)[C@@H](CC(=O)OC23CC4CC(CC(C4)C2)C3)C(=O)N(C)[C@@H]([C@@H](C)CC)C(=O)N1C	77	1.9	4.5	6
CC[C@@H](C)[C@H]1C(=O)NCC(=O)N(C)[C@@H](C(C)C)C(=O)N[C@@H](Cc2ccc(OC)cc2)C(=O)O[C@@H](C)C(=O)N2CCCC[C@H]2C(=O)N(C)[C@@H](C(C)C)C(=O)N[C@@H](C(C)C)C(=O)N(C)[C@H](CC(=O)N[C@H](C(=O)OC(C)(C)C)C(C)C)C(=O)N(C)[C@@H]([C@@H](C)CC)C(=O)N1C	344	115	8.6	11
CC[C@@H](C)[C@H]1C(=O)NCC(=O)N(C)[C@@H](C(C)C)C(=O)N[C@@H](Cc2ccc(OC)cc2)C(=O)O[C@H](C)C(=O)N2CCCC[C@H]2C(=O)N(C)[C@@H](C(C)C)C(=O)N[C@@H](C(C)C)C(=O)N(C)[C@H](CC=O)C(=O)N(C)[C@@H]([C@@H](C)CC)C(=O)N1C	28	1.1	4.6	8.2
CC[C@H](C)[C@H]1C(=O)NCC(=O)N(C)[C@@H](C(C)C)C(=O)N[C@@H](Cc2ccc(OC)cc2)C(=O)O[C@H](C)C(=O)N2CCCC[C@H]2C(=O)N(C)[C@@H](C(C)C)C(=O)N[C@@H](C(C)C)C(=O)N(C)[C@@H](CC(=O)OCCC(C)(C)C)C(=O)N(C)[C@@H]([C@@H](C)CC)C(=O)N1C	95	1.9	7.5	8.7
CC[C@H](C)[C@H]1C(=O)N(C)[C@@H]([C@@H](C)CC)C(=O)NCC(=O)N(C)[C@@H](C(C)C)C(=O)N[C@@H](Cc2ccc(OC)cc2)C(=O)O[C@H](C)C(=O)N2CCCC[C@H]2C(=O)N(C)[C@@H](C(C)C)C(=O)N[C@@H](C(C)C)C(=O)N(C)[C@H](CN(C)C(C=O)CCCC(=O)OC(C)(C)C)C(=O)N1C (stereo partly specified)	114	4.2	6.8	8.2
CC[C@@H](C)[C@H]1C(=O)NCC(=O)N(C)[C@@H](C(C)C)C(=O)N[C@@H](Cc2ccc(OCc3ccccc3)cc2)C(=O)O[C@H](C)C(=O)N2CCCC[C@H]2C(=O)N(C)[C@@H](C(C)C)C(=O)N[C@@H](C(C)C)C(=O)N(C)[C@H](CC(=O)O)C(=O)N(C)[C@@H]([C@@H](C)CC)C(=O)N1C	2.1	1.3	1.1	3.9
C=CCOc1ccc(C[C@@H]2NC(=O)[C@H](C(C)C)N(C)C(=O)CNC(=O)[C@H]([C@@H](C)CC)N(C)C(=O)[C@H]([C@@H](C)CC)N(C)C(=O)[C@H](CC(=O)OC(C)(C)C)N(C)C(=O)[C@H](C(C)C)NC(=O)[C@H](C(C)C)N(C)C(=O)[C@@H]3CCCCN3C(=O)[C@@H](C)OC2=O)cc1	9.6	1.5	5.8	11
CC[C@H](C)[C@H]1C(=O)NCC(=O)N(C)[C@@H](C(C)C)C(=O)N[C@@H](Cc2ccc(OC)cc2)C(=O)O[C@H](C)C(=O)N2CCCC[C@H]2C(=O)N(C)[C@@H](C(C)C)C(=O)N[C@@H](C(C)C)C(=O)N(C)[C@@H](CC(=O)OC)C(=O)N(C)[C@@H]([C@@H](C)CC)C(=O)N1C	84	1.9	6.4	8.4
CC[C@H](C)[C@H]1C(=O)NCC(=O)N(C)[C@@H](C(C)C)C(=O)N[C@@H](CC(=O)OC)C(=O)O[C@H](C)C(=O)N2CCCC[C@H]2C(=O)N(C)[C@@H](C(C)C)C(=O)N[C@@H](C(C)C)C(=O)N(C)[C@@H](CC(=O)OC)C(=O)N(C)[C@@H]([C@@H](C)CC)C(=O)N1C	3.5	1.1	1.9	5.6
CC[C@H](C)[C@H]1C(=O)N(C)[C@@H]([C@@H](C)CC)C(=O)NCC(=O)N(C)[C@@H](C(C)C)C(=O)N[C@@H](Cc2ccc(OC)cc2)C(=O)O[C@H](C)C(=O)N2CCCC[C@H]2C(=O)N(C)[C@@H](C(C)C)C(=O)N[C@@H](C(C)C)C(=O)N(C)[C@H](CN(C)C(C=O)C/C=C/C(=O)OC(C)(C)C)C(=O)N1C (stereo partly specified)	97	19	7.6	8.7
CC[C@H](C)[C@H]1C(=O)NCC(=O)N(C)[C@@H](C(C)C)C(=O)N[C@@H](Cc2ccc(O)cc2)C(=O)O[C@H](C)C(=O)N2CCCC[C@H]2C(=O)N(C)[C@@H](C(C)C)C(=O)N[C@@H](C(C)C)C(=O)N(C)[C@@H](CC(=O)OCc2ccccc2)C(=O)N(C)[C@@H]([C@@H](C)CC)C(=O)N1C	26	1.2	4.4	14
CC[C@@H](C)[C@H]1C(=O)NCC(=O)N(C)[C@@H](C(C)C)C(=O)N[C@@H](Cc2ccc(OC)cc2)C(=O)N[C@@H](C)C(=O)N2CCCC[C@H]2C(=O)N(C)[C@@H](C(C)C)C(=O)N[C@@H](C(C)C)C(=O)N(C)[C@H](CC(=O)OC(C)(C)C)C(=O)N(C)[C@@H]([C@@H](C)CC)C(=O)N1C	144	5.2	4.6	6.2
CC[C@H](C)[C@H]1C(=O)NCC(=O)N(C)[C@@H](C(C)C)C(=O)N[C@@H](Cc2ccc(OC)cc2)C(=O)O[C@H](C)C(=O)N2CCCC[C@H]2C(=O)N(C)[C@@H](C(C)C)C(=O)N[C@@H](C(C)C)C(=O)N(C)[C@@H](CC(=O)OCC23CC4CC(CC(C4)C2)C3)C(=O)N(C)[C@@H]([C@@H](C)CC)C(=O)N1C	6.7	1	5.9	8.5
CC[C@@H](C)[C@H]1C(=O)NCC(=O)N(C)[C@@H](C(C)C)C(=O)N[C@@H](Cc2ccc(OC)cc2)C(=O)O[C@H](C)C(=O)N2CCCC[C@H]2C(=O)N(C)[C@@H](C(C)C)C(=O)N[C@@H](C(C)C)C(=O)N(C)[C@H](CC(=O)NC(c2ccccc2)c2ccccc2)C(=O)N(C)[C@@H]([C@@H](C)CC)C(=O)N1C	147	6.4	7.5	13
CC[C@@H](C)[C@H]1C(=O)NCC(=O)N(C)[C@@H](C(C)C)C(=O)N[C@@H](Cc2ccc(OC)cc2)C(=O)O[C@H](C)C(=O)N2CCCC[C@H]2C(=O)N(C)[C@@H](C(C)C)C(=O)N[C@@H](C(C)C)C(=O)N(C)[C@H](CC(=O)NC(C)(C)C)C(=O)N(C)[C@@H]([C@@H](C)CC)C(=O)N1C	151	4.1	4.4	8.4
CC[C@H](C)[C@H]1C(=O)N(C)[C@@H]([C@@H](C)CC)C(=O)NCC(=O)N(C)[C@@H](C(C)C)C(=O)N[C@@H](Cc2ccc(OC)cc2)C(=O)O[C@H](C)C(=O)N2CCCC[C@H]2C(=O)N(C)[C@@H](C(C)C)C(=O)N[C@@H](C(C)C)C(=O)N(C)[C@H](CC(=O)N2CCC[C@H]2C(=O)OC(C)(C)C)C(=O)N1C	222	10	6.8	8.2
CC[C@@H](C)[C@H]1C(=O)N(C)CC(=O)N(C)[C@@H](C(C)C)C(=O)N(C)[C@@H](Cc2ccc(OC)cc2)C(=O)O[C@H](C)C(=O)N2CCCC[C@H]2C(=O)N(C)[C@@H](C(C)C)C(=O)N(C)[C@@H](C(C)C)C(=O)N(C)[C@H](CC(=O)OC(C)(C)C)C(=O)N(C)[C@@H]([C@@H](C)CC)C(=O)N1C	24	1.2	3.6	8.7
